Assays:
[1] = target: T1, Muscle, skeletal receptor tyrosine-protein kinase (Homo sapiens) (UniProt O15146); assay: Selectivity interaction (KinomeScan (DiscoverX)) EUB0001079a MUSK; settings: at 1 µM
T1 sequence (whole entry): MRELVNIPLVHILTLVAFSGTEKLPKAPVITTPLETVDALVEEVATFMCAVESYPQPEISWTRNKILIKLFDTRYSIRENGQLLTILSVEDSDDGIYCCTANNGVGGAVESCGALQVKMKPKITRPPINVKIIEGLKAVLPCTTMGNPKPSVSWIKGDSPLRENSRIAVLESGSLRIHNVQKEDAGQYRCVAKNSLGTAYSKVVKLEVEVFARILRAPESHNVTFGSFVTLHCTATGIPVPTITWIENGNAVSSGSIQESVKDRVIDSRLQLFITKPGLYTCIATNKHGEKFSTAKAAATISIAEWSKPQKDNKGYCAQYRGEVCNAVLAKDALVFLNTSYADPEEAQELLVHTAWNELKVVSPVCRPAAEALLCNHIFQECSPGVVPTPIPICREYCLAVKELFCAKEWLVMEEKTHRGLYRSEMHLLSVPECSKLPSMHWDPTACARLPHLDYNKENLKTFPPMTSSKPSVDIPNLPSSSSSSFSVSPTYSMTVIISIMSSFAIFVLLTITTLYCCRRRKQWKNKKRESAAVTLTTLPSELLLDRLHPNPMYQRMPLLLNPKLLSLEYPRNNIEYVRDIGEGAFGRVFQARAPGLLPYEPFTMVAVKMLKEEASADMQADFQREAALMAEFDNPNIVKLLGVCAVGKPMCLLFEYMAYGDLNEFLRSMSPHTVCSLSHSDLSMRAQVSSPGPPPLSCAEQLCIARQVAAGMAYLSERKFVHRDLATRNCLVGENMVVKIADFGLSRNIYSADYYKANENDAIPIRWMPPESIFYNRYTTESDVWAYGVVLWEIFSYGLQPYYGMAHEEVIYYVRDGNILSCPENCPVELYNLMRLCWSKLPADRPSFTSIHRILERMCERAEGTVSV

[2] = target: T2, Dual specificity protein kinase TTK (Homo sapiens) (UniProt P33981); assay: Selectivity interaction (KinomeScan (DiscoverX)) EUB0001079a TTK; settings: at 1 µM
T2 sequence (whole entry): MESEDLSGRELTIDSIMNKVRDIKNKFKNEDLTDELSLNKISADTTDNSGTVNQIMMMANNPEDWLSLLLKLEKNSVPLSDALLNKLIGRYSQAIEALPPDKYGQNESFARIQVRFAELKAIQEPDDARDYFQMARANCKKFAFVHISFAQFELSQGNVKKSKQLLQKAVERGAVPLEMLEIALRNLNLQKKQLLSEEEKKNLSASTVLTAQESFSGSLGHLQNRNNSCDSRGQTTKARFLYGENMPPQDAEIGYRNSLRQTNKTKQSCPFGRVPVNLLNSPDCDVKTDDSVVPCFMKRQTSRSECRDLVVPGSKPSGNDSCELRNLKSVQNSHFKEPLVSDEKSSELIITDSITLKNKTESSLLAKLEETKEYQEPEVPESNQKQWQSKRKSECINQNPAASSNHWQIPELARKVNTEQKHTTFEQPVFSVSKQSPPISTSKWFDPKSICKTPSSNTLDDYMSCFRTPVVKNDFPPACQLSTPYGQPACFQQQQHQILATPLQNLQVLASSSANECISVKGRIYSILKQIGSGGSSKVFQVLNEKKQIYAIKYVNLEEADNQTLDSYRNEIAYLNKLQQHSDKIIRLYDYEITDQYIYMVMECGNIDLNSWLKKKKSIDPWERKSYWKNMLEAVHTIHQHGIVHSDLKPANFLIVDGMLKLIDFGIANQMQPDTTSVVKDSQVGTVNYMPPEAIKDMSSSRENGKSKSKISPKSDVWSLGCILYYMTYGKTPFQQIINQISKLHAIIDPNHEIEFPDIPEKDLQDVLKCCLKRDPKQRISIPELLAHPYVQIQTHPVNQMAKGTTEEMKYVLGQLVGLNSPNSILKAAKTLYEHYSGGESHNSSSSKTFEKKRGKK

[3] = target: Protein-tyrosine kinase 2-beta (Homo sapiens) (UniProt Q14289); assay: Selectivity interaction (Kinase panel (Invitrogen)) EUB0000639a PTK2B; settings: at 200 nM
[4] = target: T3, MAP kinase-activated protein kinase 5 (Homo sapiens) (UniProt Q8IW41); assay: Selectivity interaction (KinomeScan (DiscoverX)) EUB0000695a MAPKAPK5; settings: at 100 nM
T3 sequence (whole entry): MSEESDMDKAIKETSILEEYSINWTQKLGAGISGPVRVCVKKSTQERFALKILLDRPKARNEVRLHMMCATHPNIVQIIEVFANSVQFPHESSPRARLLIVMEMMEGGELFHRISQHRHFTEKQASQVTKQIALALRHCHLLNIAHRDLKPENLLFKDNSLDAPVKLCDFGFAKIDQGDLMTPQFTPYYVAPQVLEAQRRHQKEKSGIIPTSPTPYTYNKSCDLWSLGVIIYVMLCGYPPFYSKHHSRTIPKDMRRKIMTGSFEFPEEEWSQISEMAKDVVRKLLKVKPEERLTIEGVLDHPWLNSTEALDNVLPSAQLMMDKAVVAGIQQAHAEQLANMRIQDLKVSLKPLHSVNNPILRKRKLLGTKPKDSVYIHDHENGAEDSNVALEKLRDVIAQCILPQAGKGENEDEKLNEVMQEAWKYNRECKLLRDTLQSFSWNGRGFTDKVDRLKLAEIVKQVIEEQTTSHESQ

[5] = target: Serine/threonine-protein kinase 35 (Homo sapiens) (UniProt Q8TDR2); assay: Selectivity interaction (KinomeScan (DiscoverX)) EUB0000695a STK35; settings: at 100 nM
[6] = target: RAF proto-oncogene serine/threonine-protein kinase (Homo sapiens) (UniProt P04049); assay: Selectivity interaction (KinomeScan (DiscoverX)) EUB0000045b RAF1
[7] = target: Tyrosine-protein kinase Fer (Homo sapiens) (UniProt P16591); assay: Selectivity interaction (KinomeScan (DiscoverX)) EUB0001619a FER; settings: at 1 µM
Chain of Tyrosine-protein kinase Fer (Homo sapiens) (P16591 whole entry, looked up): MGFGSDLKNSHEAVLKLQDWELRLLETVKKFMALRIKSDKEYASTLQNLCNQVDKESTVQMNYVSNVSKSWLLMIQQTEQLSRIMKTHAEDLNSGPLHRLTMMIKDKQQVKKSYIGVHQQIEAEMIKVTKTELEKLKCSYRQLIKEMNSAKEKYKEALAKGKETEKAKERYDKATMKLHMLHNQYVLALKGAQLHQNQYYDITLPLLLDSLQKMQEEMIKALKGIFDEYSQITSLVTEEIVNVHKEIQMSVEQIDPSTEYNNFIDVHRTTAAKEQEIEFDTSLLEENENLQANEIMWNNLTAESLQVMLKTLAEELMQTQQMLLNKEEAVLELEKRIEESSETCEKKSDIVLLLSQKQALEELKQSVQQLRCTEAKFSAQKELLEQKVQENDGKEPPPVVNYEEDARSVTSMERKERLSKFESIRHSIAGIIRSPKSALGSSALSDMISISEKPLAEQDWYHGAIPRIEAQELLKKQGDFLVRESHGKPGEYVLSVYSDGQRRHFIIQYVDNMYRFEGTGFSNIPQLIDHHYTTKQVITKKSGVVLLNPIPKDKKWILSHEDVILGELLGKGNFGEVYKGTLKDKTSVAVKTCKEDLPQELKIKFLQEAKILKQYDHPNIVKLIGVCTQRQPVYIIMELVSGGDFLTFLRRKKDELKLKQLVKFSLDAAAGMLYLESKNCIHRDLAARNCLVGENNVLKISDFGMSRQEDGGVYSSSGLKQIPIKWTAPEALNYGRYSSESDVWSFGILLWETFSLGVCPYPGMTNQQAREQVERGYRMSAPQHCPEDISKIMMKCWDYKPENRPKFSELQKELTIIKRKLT

Chain of RAF proto-oncogene serine/threonine-protein kinase (Homo sapiens) (P04049 whole entry): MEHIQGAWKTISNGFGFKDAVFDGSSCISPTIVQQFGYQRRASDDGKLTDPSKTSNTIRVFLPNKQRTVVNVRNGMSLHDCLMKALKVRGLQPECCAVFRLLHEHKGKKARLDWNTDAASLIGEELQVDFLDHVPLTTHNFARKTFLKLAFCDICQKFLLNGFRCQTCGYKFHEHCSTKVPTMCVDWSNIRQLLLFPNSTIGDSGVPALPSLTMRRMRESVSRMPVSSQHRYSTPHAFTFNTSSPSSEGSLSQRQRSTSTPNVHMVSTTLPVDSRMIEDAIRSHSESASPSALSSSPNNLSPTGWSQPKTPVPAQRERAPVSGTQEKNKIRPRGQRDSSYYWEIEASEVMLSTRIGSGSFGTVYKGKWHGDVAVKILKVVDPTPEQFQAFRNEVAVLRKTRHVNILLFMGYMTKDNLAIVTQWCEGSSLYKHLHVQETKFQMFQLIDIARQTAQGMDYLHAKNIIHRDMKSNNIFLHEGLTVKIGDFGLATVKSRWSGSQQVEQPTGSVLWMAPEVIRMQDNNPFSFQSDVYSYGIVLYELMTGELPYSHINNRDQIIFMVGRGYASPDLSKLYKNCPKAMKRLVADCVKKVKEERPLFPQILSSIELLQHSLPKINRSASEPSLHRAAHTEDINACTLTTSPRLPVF
Chain of Serine/threonine-protein kinase 35 (Homo sapiens) (Q8TDR2 whole entry): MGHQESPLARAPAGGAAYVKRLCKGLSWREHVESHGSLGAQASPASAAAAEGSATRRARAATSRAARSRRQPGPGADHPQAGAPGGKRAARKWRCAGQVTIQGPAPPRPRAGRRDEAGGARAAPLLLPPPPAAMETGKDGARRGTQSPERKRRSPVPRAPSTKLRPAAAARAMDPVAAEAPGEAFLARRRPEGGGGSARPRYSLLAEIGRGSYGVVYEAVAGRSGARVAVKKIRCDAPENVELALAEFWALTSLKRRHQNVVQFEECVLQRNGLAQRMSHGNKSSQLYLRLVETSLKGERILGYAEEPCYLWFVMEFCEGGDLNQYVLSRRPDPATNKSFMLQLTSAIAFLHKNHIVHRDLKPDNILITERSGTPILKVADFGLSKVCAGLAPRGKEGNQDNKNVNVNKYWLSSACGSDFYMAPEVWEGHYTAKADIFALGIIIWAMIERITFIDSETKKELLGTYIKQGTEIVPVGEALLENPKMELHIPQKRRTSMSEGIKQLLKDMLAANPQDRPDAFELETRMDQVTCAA
Chain of Protein-tyrosine kinase 2-beta (Homo sapiens) (Q14289 whole entry, looked up): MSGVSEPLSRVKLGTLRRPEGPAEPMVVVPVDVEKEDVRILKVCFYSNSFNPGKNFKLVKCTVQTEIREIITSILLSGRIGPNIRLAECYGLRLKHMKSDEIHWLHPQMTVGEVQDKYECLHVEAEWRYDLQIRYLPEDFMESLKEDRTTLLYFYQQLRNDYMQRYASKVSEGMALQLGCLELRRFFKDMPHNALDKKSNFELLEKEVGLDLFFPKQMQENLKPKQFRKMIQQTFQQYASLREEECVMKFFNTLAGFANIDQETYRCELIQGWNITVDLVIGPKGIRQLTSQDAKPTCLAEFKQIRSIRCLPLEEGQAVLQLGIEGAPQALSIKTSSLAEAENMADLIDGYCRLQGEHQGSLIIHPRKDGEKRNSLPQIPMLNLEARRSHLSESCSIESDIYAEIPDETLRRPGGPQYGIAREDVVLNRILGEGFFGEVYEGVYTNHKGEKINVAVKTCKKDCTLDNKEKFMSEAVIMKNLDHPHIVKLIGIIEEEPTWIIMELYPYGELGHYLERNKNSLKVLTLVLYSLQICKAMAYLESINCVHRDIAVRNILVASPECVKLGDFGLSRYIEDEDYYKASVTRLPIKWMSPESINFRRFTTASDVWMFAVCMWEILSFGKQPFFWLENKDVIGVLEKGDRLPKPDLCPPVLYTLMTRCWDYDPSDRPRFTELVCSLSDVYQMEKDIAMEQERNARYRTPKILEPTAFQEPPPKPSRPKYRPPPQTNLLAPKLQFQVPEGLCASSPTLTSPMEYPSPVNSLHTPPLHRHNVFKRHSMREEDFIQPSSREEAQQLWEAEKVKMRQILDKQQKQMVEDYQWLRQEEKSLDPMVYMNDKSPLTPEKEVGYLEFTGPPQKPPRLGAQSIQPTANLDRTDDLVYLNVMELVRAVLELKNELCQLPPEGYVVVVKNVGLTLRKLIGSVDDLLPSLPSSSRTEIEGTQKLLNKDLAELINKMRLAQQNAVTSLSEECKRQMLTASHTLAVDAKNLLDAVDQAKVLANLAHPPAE

`Nc1cnc(N2CCc3cc(S(=O)(=O)Nc4c(F)cc(Cl)cc4F)cc(N4CCCC4=O)c32)nc1` [TP-020n] gave a % of control [1] of 100% and a % of control [2] of 90%.

For `CC[C@@H]1[C@H](F)C(=O)N[C@@H]1COc1nccc2cc(C(N)=O)c(OC)cc12` [ZIMLOVISERTIB], the % of inhibition [3] was -0.0574%.

In the case of `Cc1cc(F)c(C(=O)Nc2cccc(-c3nncn3C(C)C)n2)cc1-n1cnc(C2CC2)c1`, the % of control [4] is reported as 76% and the % of control [5] is reported as 100%.

Work on `C=CC(=O)Nc1cc(-n2c(=O)ccc3cnc4ccc(-c5ccc(NS(C)(=O)=O)cc5)cc4c32)ccc1C` yielded a % of control ([6]; at 1 µM) of 100% and a % of control ([6]; at 10 µM) of 100%.

In the case of `N#Cc1cccc(-c2c[nH]c3ncnc(N4CCOCC4)c23)c1`, the % of control [7] is reported as 84%.
